Data reported in paper PMC9386913 (Arthritis Research & Therapy, 2022).
Marks after values point to notes of the source that are not given here.

Experiment: Phase I multiple ascending-dose study: safety and tolerability (treatment-emergent adverse events)
Assay type: in vivo, human (healthy volunteers)
Procedure: A single-center, randomized, double-blind, placebo-controlled phase I study (NCT03554993) with a MAD component was performed in the UK between May 2018 and July 2019. Thirty-seven healthy volunteers of any race, ethnicity, or sex were enrolled. The inclusion criteria were 18 to 55 years of age inclusive, body mass index 18 to 33 kg/m^2, and physical examination by the investigator without clinically significant findings. Subjects were excluded if any clinically significant medical history, laboratory abnormality, psychiatric illness, or other condition existed that would place the subject at unacceptable risk by participating in the study. Pregnancy prevention guidance was provided as per Clinical Trial Facilitation Group recommendations. Subjects were randomly assigned to daily oral doses of CC-99677 or placebo. Subjects were dosed daily for 14 days. […] Both the investigator and subjects were blinded to the treatment arm. Safety assessments, including physical examinations, clinical laboratory tests, and collection of adverse events (AEs) were performed and graded using MedDRA version 22.0 and the US Food and Drug Administration (FDA) Toxicity Grading Scale for Healthy Adult and Adolescent Volunteers. The primary outcome of this trial was the safety and tolerability of multiple daily doses of CC-99677.

## CCOCc1cnc(Cl)nc1Oc1ccc2c(ccc3sc4c(c32)NC[C@@H](C)NC4=O)n1 [CC-99677]
10 mg daily, 14 days (n = 5)
  Subjects with ≥ 1 treatment-emergent AE: 3 (60.0) n (%)
  TEAE: Abdominal pain: 0 n (%)
  TEAE: Alanine aminotransferase increased: 0 n (%)
  TEAE: Aspartate aminotransferase increased: 0 n (%)
  TEAE: Back pain: 0 n (%)
  TEAE: Blood creatine phosphokinase increased: 0 n (%)
  TEAE: Catheter site related reaction: 0 n (%)
  TEAE: Chapped lips: 0 n (%)
  TEAE: Constipation: 0 n (%)
  TEAE: Diarrhea: 0 n (%)
  TEAE: Dizziness: 1 (20.0) n (%)
  TEAE: Dysmenorrhea: 0 n (%)
  TEAE: Dyspepsia: 1 (20.0) n (%)
  TEAE: Ear and labyrinth disorders: 1 (20.0) n (%)
  TEAE: Ear pain: 1 (20.0) n (%)
  TEAE: Flushing: 0 n (%)
  TEAE: Gastrointestinal disorders: 2 (40.0) n (%)
  TEAE: General disorders and administration site conditions: 2 (40.0) n (%)
  TEAE: Headache: 2 (40.0) n (%)
  TEAE: Hot flush: 0 n (%)
  TEAE: Infections and infestations: 1 (20.0) n (%)
  TEAE: Injury, poisoning, and procedural complications: 1 (20.0) n (%)
  TEAE: Insomnia: 1 (20.0) n (%)
  TEAE: Investigations: 0 n (%)
  TEAE: Muscle strain: 1 (20.0) n (%)
  TEAE: Musculoskeletal and connective tissue disorders: 0 n (%)
  TEAE: Musculoskeletal pain: 0 n (%)
  TEAE: Myalgia: 0 n (%)
  TEAE: Nasopharyngitis: 0 n (%)
  TEAE: Nausea: 2 (40.0) n (%)
  TEAE: Nervous system disorders: 2 (40.0) n (%)
  TEAE: Oropharyngeal pain: 1 (20.0) n (%)
  TEAE: Psychiatric disorders: 1 (20.0) n (%)
  TEAE: Rash pustular: 1 (20.0) n (%)
  TEAE: Rectal hemorrhage: 0 n (%)
  TEAE: Reproductive system and breast disorders: 0 n (%)
  TEAE: Respiratory, thoracic, and mediastinal disorders: 1 (20.0) n (%)
  TEAE: Sensation of foreign body: 1 (20.0) n (%)
  TEAE: Vascular disorders: 0 n (%)
  TEAE: Vessel puncture site pain: 1 (20.0) n (%)
  TEAE: Vessel puncture site reaction: 0 n (%)
30 mg daily, 14 days (n = 6)
  Subjects with ≥ 1 treatment-emergent AE: 4 (66.7) n (%)
  TEAE: Abdominal pain: 0 n (%)
  TEAE: Alanine aminotransferase increased: 0 n (%)
  TEAE: Aspartate aminotransferase increased: 0 n (%)
  TEAE: Back pain: 0 n (%)
  TEAE: Blood creatine phosphokinase increased: 0 n (%)
  TEAE: Catheter site related reaction: 0 n (%)
  TEAE: Chapped lips: 1 (16.7) n (%)
  TEAE: Constipation: 0 n (%)
  TEAE: Diarrhea: 0 n (%)
  TEAE: Dizziness: 1 (16.7) n (%)
  TEAE: Dysmenorrhea: 0 n (%)
  TEAE: Dyspepsia: 0 n (%)
  TEAE: Ear and labyrinth disorders: 0 n (%)
  TEAE: Ear pain: 0 n (%)
  TEAE: Flushing: 0 n (%)
  TEAE: Gastrointestinal disorders: 2 (33.3) n (%)
  TEAE: General disorders and administration site conditions: 0 n (%)
  TEAE: Headache: 0 n (%)
  TEAE: Hot flush: 0 n (%)
  TEAE: Infections and infestations: 1 (16.7) n (%)
  TEAE: Injury, poisoning, and procedural complications: 0 n (%)
  TEAE: Insomnia: 0 n (%)
  TEAE: Investigations: 0 n (%)
  TEAE: Muscle strain: 0 n (%)
  TEAE: Musculoskeletal and connective tissue disorders: 2 (33.3) n (%)
  TEAE: Musculoskeletal pain: 0 n (%)
  TEAE: Myalgia: 2 (33.3) n (%)
  TEAE: Nasopharyngitis: 1 (16.7) n (%)
  TEAE: Nausea: 0 n (%)
  TEAE: Nervous system disorders: 1 (16.7) n (%)
  TEAE: Oropharyngeal pain: 0 n (%)
  TEAE: Psychiatric disorders: 0 n (%)
  TEAE: Rash pustular: 0 n (%)
  TEAE: Rectal hemorrhage: 1 (16.7) n (%)
  TEAE: Reproductive system and breast disorders: 0 n (%)
  TEAE: Respiratory, thoracic, and mediastinal disorders: 0 n (%)
  TEAE: Sensation of foreign body: 0 n (%)
  TEAE: Vascular disorders: 0 n (%)
  TEAE: Vessel puncture site pain: 0 n (%)
  TEAE: Vessel puncture site reaction: 0 n (%)
60 mg daily, 14 days (n = 6)
  Subjects with ≥ 1 treatment-emergent AE: 1 (16.7) n (%)
  TEAE: Abdominal pain: 0 n (%)
  TEAE: Alanine aminotransferase increased: 0 n (%)
  TEAE: Aspartate aminotransferase increased: 0 n (%)
  TEAE: Back pain: 0 n (%)
  TEAE: Blood creatine phosphokinase increased: 0 n (%)
  TEAE: Catheter site related reaction: 0 n (%)
  TEAE: Chapped lips: 0 n (%)
  TEAE: Constipation: 0 n (%)
  TEAE: Diarrhea: 0 n (%)
  TEAE: Dizziness: 0 n (%)
  TEAE: Dysmenorrhea: 0 n (%)
  TEAE: Dyspepsia: 0 n (%)
  TEAE: Ear and labyrinth disorders: 0 n (%)
  TEAE: Ear pain: 0 n (%)
  TEAE: Flushing: 0 n (%)
  TEAE: Gastrointestinal disorders: 0 n (%)
  TEAE: General disorders and administration site conditions: 0 n (%)
  TEAE: Headache: 1 (16.7) n (%)
  TEAE: Hot flush: 0 n (%)
  TEAE: Infections and infestations: 0 n (%)
  TEAE: Injury, poisoning, and procedural complications: 0 n (%)
  TEAE: Insomnia: 0 n (%)
  TEAE: Investigations: 0 n (%)
  TEAE: Muscle strain: 0 n (%)
  TEAE: Musculoskeletal and connective tissue disorders: 0 n (%)
  TEAE: Musculoskeletal pain: 0 n (%)
  TEAE: Myalgia: 0 n (%)
  TEAE: Nasopharyngitis: 0 n (%)
  TEAE: Nausea: 0 n (%)
  TEAE: Nervous system disorders: 1 (16.7) n (%)
  TEAE: Oropharyngeal pain: 0 n (%)
  TEAE: Psychiatric disorders: 0 n (%)
  TEAE: Rash pustular: 0 n (%)
  TEAE: Rectal hemorrhage: 0 n (%)
  TEAE: Reproductive system and breast disorders: 0 n (%)
  TEAE: Respiratory, thoracic, and mediastinal disorders: 0 n (%)
  TEAE: Sensation of foreign body: 0 n (%)
  TEAE: Vascular disorders: 0 n (%)
  TEAE: Vessel puncture site pain: 0 n (%)
  TEAE: Vessel puncture site reaction: 0 n (%)
120 mg daily, 14 days (n = 6)
  Subjects with ≥ 1 treatment-emergent AE: 3 (50.0) n (%)
  TEAE: Abdominal pain: 1 (16.7) n (%)
  TEAE: Alanine aminotransferase increased: 1 (16.7) n (%)
  TEAE: Aspartate aminotransferase increased: 0 n (%)
  TEAE: Back pain: 0 n (%)
  TEAE: Blood creatine phosphokinase increased: 0 n (%)
  TEAE: Catheter site related reaction: 0 n (%)
  TEAE: Chapped lips: 0 n (%)
  TEAE: Constipation: 0 n (%)
  TEAE: Diarrhea: 1 (16.7) n (%)
  TEAE: Dizziness: 0 n (%)
  TEAE: Dysmenorrhea: 0 n (%)
  TEAE: Dyspepsia: 0 n (%)
  TEAE: Ear and labyrinth disorders: 0 n (%)
  TEAE: Ear pain: 0 n (%)
  TEAE: Flushing: 0 n (%)
  TEAE: Gastrointestinal disorders: 1 (16.7) n (%)
  TEAE: General disorders and administration site conditions: 0 n (%)
  TEAE: Headache: 1 (16.7) n (%)
  TEAE: Hot flush: 0 n (%)
  TEAE: Infections and infestations: 0 n (%)
  TEAE: Injury, poisoning, and procedural complications: 0 n (%)
  TEAE: Insomnia: 0 n (%)
  TEAE: Investigations: 1 (16.7) n (%)
  TEAE: Muscle strain: 0 n (%)
  TEAE: Musculoskeletal and connective tissue disorders: 1 (16.7) n (%)
  TEAE: Musculoskeletal pain: 1 (16.7) n (%)
  TEAE: Myalgia: 0 n (%)
  TEAE: Nasopharyngitis: 0 n (%)
  TEAE: Nausea: 0 n (%)
  TEAE: Nervous system disorders: 1 (16.7) n (%)
  TEAE: Oropharyngeal pain: 1 (16.7) n (%)
  TEAE: Psychiatric disorders: 0 n (%)
  TEAE: Rash pustular: 0 n (%)
  TEAE: Rectal hemorrhage: 0 n (%)
  TEAE: Reproductive system and breast disorders: 0 n (%)
  TEAE: Respiratory, thoracic, and mediastinal disorders: 1 (16.7) n (%)
  TEAE: Sensation of foreign body: 0 n (%)
  TEAE: Vascular disorders: 0 n (%)
  TEAE: Vessel puncture site pain: 0 n (%)
  TEAE: Vessel puncture site reaction: 0 n (%)
150 mg daily, 14 days (n = 5)
  Subjects with ≥ 1 treatment-emergent AE: 2 (40.0) n (%)
  TEAE: Abdominal pain: 0 n (%)
  TEAE: Alanine aminotransferase increased: 0 n (%)
  TEAE: Back pain: 0 n (%)
  TEAE: Catheter site related reaction: 0 n (%)
  TEAE: Chapped lips: 0 n (%)
  TEAE: Constipation: 0 n (%)
  TEAE: Diarrhea: 0 n (%)
  TEAE: Dizziness: 0 n (%)
  TEAE: Dysmenorrhea: 1 (20.0) n (%)
  TEAE: Dyspepsia: 0 n (%)
  TEAE: Ear and labyrinth disorders: 0 n (%)
  TEAE: Ear pain: 0 n (%)
  TEAE: Flushing: 1 (20.0) n (%)
  TEAE: Gastrointestinal disorders: 0 n (%)
  TEAE: General disorders and administration site conditions: 0 n (%)
  TEAE: Headache: 0 n (%)
  TEAE: Hot flush: 0 n (%)
  TEAE: Infections and infestations: 0 n (%)
  TEAE: Injury, poisoning, and procedural complications: 0 n (%)
  TEAE: Insomnia: 0 n (%)
  TEAE: Investigations: 1 (20.0) n (%)
  TEAE: Muscle strain: 0 n (%)
  TEAE: Musculoskeletal and connective tissue disorders: 0 n (%)
  TEAE: Musculoskeletal pain: 0 n (%)
  TEAE: Myalgia: 0 n (%)
  TEAE: Nasopharyngitis: 0 n (%)
  TEAE: Nausea: 0 n (%)
  TEAE: Nervous system disorders: 0 n (%)
  TEAE: Oropharyngeal pain: 0 n (%)
  TEAE: Psychiatric disorders: 0 n (%)
  TEAE: Rash pustular: 0 n (%)
  TEAE: Rectal hemorrhage: 0 n (%)
  TEAE: Reproductive system and breast disorders: 1 (20.0) n (%)
  TEAE: Respiratory, thoracic, and mediastinal disorders: 0 n (%)
  TEAE: Sensation of foreign body: 0 n (%)
  TEAE: Vascular disorders: 1 (20.0) n (%)
  TEAE: Vessel puncture site pain: 0 n (%)
  TEAE: Vessel puncture site reaction: 0 n (%)
150 mg daily, 14 days (n = 5), occurred 14 days after the end of dosing following greater-than-usual physical activity, same individual as AST increase
  TEAE: Blood creatine phosphokinase increased: 1 (20.0)^a n (%)
150 mg daily, 14 days (n = 5), occurred 14 days after the end of dosing following greater-than-usual physical activity, same individual as CPK increase
  TEAE: Aspartate aminotransferase increased: 1 (20.0)^a n (%)
10 to 150 mg
  Dose dependency of the incidence of TEAEs: no apparent CC-99677 dose dependency
14 consecutive days of dosing, 5 dose-level cohorts 10 to 150 mg
  Serious treatment-emergent adverse events: no serious treatment-emergent adverse events (TEAEs) were observed
MAD study
  AEs not suspected to be related to CC-99677 (blinded investigator assessment): 69%
  Discontinuation because of safety reasons: No subject discontinued
MAD study, 10 to 150 mg daily, 14 days
  Severity grade of TEAEs (FDA toxicity grading scale): mild (grade 1)
All subjects receiving CC-99677 (n = 28), placebo 77.8%
  Subjects with TEAEs: 46.4%
